These are literature values, as cited in patent US20040265381A1, “Anti-asthmatic drug (asmakure) from indigenous herbs to cure the disease asthma” (priority 2001, published 2004).

Each structure is given as a SMILES string.

On to `CCN(CC)CC#CCOC(=O)C(O)(c1ccccc1)C1CCCCC1.Cl` (stereo not drawn) [Oxybutynin, α-cyclohexyl-α-hydroxybenzeneacetic acid 4-(diethylamino)-2-butynyl ester hydrochloride], for which, under “following oral administration”, the “start of pharmacological action” value was “within one hour”. For the setting “in vivo”, the half-life entry is “less than 2 hours”.
